Drawing on PubChem BioAssay (NCI), this text covers TGI for 15 molecules.

Test systems include A549 NSCLC; HCT-15 colon; HOP-92 NSCLC; IGROV1 ovarian; NCI-H226 lung; SK-MEL-5 melanoma; SW-620 colon; UACC-257 melanoma; UACC-62 melanoma; A498 renal.
Common to all, as to assay: NCI tumour cell line growth inhibition, 48 h

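Following 48 hours of exposure in 96-well plates, responses at five concentrations were used to interpolate endpoints linearly. TGI is the concentration that stops growth completely.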

With `CCn1cnc2c(NC(C)=O)ncnc21`, the TGI in the experiment on A549 NSCLC, with HCT-15 colon, with HOP-92 NSCLC, with IGROV1 ovarian, in the experiment on NCI-H226 lung and in the experiment on SK-MEL-5 melanoma was greater than 100 µM throughout. Besides, the TGI in the experiment with SW-620 colon, with UACC-257 melanoma and in the experiment on UACC-62 melanoma was greater than 100 µM each time.
Regarding `CN(C(=O)c1cccs1)C(=S)N1CCN(c2ccccc2)CC1`, the TGI in the experiment on A549 NSCLC, in the experiment on HCT-15 colon, with HOP-92 NSCLC, in the experiment with IGROV1 ovarian, in the experiment on NCI-H226 lung and in the experiment on SK-MEL-5 melanoma was greater than 100 µM in each case. Moreover, the TGI in the experiment on SW-620 colon, with UACC-257 melanoma and in the experiment with UACC-62 melanoma was greater than 100 µM throughout.
Regarding `O=C(CSc1nnc(-c2ccc(N=Cc3ccc(Cl)cc3)cc2)o1)Nc1cccc(Cl)c1`, the TGI in the experiment on A549 NSCLC, in the experiment on HCT-15 colon, with NCI-H226 lung, in the experiment with SK-MEL-5 melanoma, in the experiment with SW-620 colon and in the experiment with UACC-257 melanoma was greater than 100 µM in each case. For the same molecule, in the experiment on UACC-62 melanoma, the TGI was greater than 100 µM.
On to `S=C(Nc1ccccc1)N1N=C2c3ccccc3CC[C@H]2[C@@H]1c1ccccc1`, for which the TGI in the experiment on A498 renal, in the experiment on A549 NSCLC, in the experiment with HCT-15 colon, with IGROV1 ovarian, with NCI-H226 lung and in the experiment with SW-620 colon was greater than 100 µM throughout. Besides, the TGI in the experiment with UACC-257 melanoma and in the experiment on UACC-62 melanoma was greater than 100 µM in each case.
On to `COc1cc(OC)nc(Nc2c(C#N)c3nc4ccccc4n3c3ccccc23)n1`, for which the TGI in the experiment on A549 NSCLC, with HCT-15 colon, in the experiment on IGROV1 ovarian, in the experiment with NCI-H226 lung, in the experiment with SK-MEL-5 melanoma and with SW-620 colon was greater than 100 µM throughout. The TGI in the experiment on UACC-257 melanoma and in the experiment with UACC-62 melanoma was greater than 100 µM each time.
As to `[N-]=[N+]=NC1=C(c2ccccc2)C(=O)c2cccc3cccc1c23`, the TGI in the experiment with A498 renal was 8.29 µM; in the experiment on A549 NSCLC, greater than 100 µM; in the experiment on HCT-15 colon, greater than 100 µM; in the experiment with HOP-92 NSCLC, 91.1 µM; in the experiment with IGROV1 ovarian it was 95.2 µM; with SK-MEL-5 melanoma, 18.1 µM. The TGI in the experiment with SW-620 colon was greater than 100 µM; with UACC-257 melanoma it was 29.2 µM; with UACC-62 melanoma, 34.9 µM.
As to `Cc1nn(C)c2c1C(=O)N(C)CC(=O)N2C`, the TGI in the experiment on A498 renal, in the experiment with A549 NSCLC, in the experiment on HCT-15 colon, in the experiment on HOP-92 NSCLC, in the experiment with IGROV1 ovarian and in the experiment with SK-MEL-5 melanoma was greater than 100 µM each time. Also, the TGI in the experiment on SW-620 colon, with UACC-257 melanoma and with UACC-62 melanoma was greater than 100 µM each time.
`Cc1cc(NCCCCCCNc2cc(C)nc3ccc(Cl)cc23)c2cc(Cl)ccc2n1`: the TGI was greater than 100 µM with A498 renal; 45.9 µM in the experiment on A549 NSCLC; 33.1 µM in the experiment with HCT-15 colon; greater than 100 µM in the experiment on NCI-H226 lung; 32.8 µM in the experiment with SK-MEL-5 melanoma; 44.9 µM in the experiment with UACC-257 melanoma. In the experiment on UACC-62 melanoma, the TGI was 36 µM.
Consider `Cc1nc2c(ncn2CCO)c(=O)[nH]1`, for which the TGI with A498 renal, in the experiment with A549 NSCLC, with HCT-15 colon, in the experiment with IGROV1 ovarian, in the experiment on NCI-H226 lung and in the experiment on SK-MEL-5 melanoma was greater than 100 µM each time. For the same molecule, the TGI with SW-620 colon, in the experiment on UACC-257 melanoma and in the experiment with UACC-62 melanoma was greater than 100 µM throughout.
`COC(=O)[C@@H]1C[C@]2(CC=C(C)C)c3ccccc3N(S(=O)(=O)c3ccccc3)[C@@H]2N1C(=O)OC`: the TGI with A549 NSCLC was greater than 100 µM; with HCT-15 colon, 55.8 µM; in the experiment with HOP-92 NSCLC, greater than 100 µM; in the experiment with NCI-H226 lung, 89.1 µM; in the experiment on SK-MEL-5 melanoma, 26 µM; with SW-620 colon, greater than 100 µM. In addition, the TGI in the experiment on UACC-257 melanoma was 51.6 µM; in the experiment on UACC-62 melanoma, 51.8 µM.
On to `COc1cc(C=O)c(-c2cc3c(cc2C=O)OCO3)c(OC)c1OC`, for which the TGI with A549 NSCLC is greater than 290 µM; in the experiment on HCT-15 colon, 279 µM; with HOP-92 NSCLC, 241 µM; in the experiment with IGROV1 ovarian, greater than 290 µM; in the experiment with NCI-H226 lung, 280 µM; with SK-MEL-5 melanoma, greater than 290 µM. The TGI with SW-620 colon, in the experiment on UACC-257 melanoma and in the experiment with UACC-62 melanoma was greater than 290 µM throughout.
Turning to `N=c1oc2c(Cl)cc(Cl)cc2cc1C(=O)Nc1ccccn1`, the TGI in the experiment with A498 renal, with A549 NSCLC, in the experiment on HCT-15 colon, in the experiment with NCI-H226 lung, in the experiment with SK-MEL-5 melanoma and in the experiment on SW-620 colon was greater than 100 µM each time. Further, the TGI with UACC-257 melanoma was greater than 100 µM; in the experiment with UACC-62 melanoma, 61.4 µM.
Take `C/C(=N/N)c1ccc2[nH]c3c(C)cc([N+](=O)[O-])c(C)c3c2c1`: the TGI in the experiment with A549 NSCLC is 40.6 µM; in the experiment with HCT-15 colon, 24.7 µM; in the experiment with NCI-H226 lung, 29.2 µM; in the experiment on SK-MEL-5 melanoma, 18.1 µM; in the experiment with SW-620 colon, 24.7 µM; with UACC-257 melanoma, 48.6 µM.
On to `OCSc1nn(CO)c(=S)s1`, for which the TGI was greater than 100 µM in the experiment with A549 NSCLC; 37.8 µM with HCT-15 colon; 41.7 µM with HOP-92 NSCLC; 47.8 µM in the experiment with IGROV1 ovarian; 92.9 µM in the experiment on NCI-H226 lung; greater than 100 µM in the experiment with SK-MEL-5 melanoma. Further, the TGI in the experiment on SW-620 colon was greater than 100 µM; in the experiment on UACC-257 melanoma it was 48.1 µM; in the experiment with UACC-62 melanoma, 34.8 µM.
Regarding `O=C(c1ccccc1)c1c(CNCc2ccccc2)n(C(=O)c2ccccc2)c2ccccc12`, the TGI in the experiment with A549 NSCLC is greater than 100 µM; in the experiment on HCT-15 colon, greater than 100 µM; with HOP-92 NSCLC, 82.1 µM; with IGROV1 ovarian it was greater than 100 µM; with NCI-H226 lung it was greater than 100 µM; in the experiment on SK-MEL-5 melanoma, greater than 100 µM. For the same molecule, the TGI with SW-620 colon, in the experiment on UACC-257 melanoma and with UACC-62 melanoma was greater than 100 µM in each case.
